Experimental data taken from patent US20260240820A1, “METHOD FOR CONTROLLING MEMBRANE POTENTIAL-DEPENDENT ION CHANNEL THROUGH TYPE I TASTE RECEPTORS (T1RS)” (ION CHAT RESEARCH CORPORATE, priority 2022, published 2026).
Entries after “also recorded” stand apart in the source; their conditions may differ. Read-outs that look alike come from different tables or passages of the source.

Tests used:
[1] = test system: voltage-dependent potassium channel current of SH-SY5Y cells; test: Voltage clamp recording of outward potassium current in SH-SY5Y cells; assay type: cell-based, human; details: 2 mM
Description: The inward current represents the transient peak observed immediately after stimulation, while the outward current measures the average value during the last 50 ms of rectangular pulse stimulation.

VGSC = test: Patch-clamp recording of VGSC current, cell type not specified or several cell types (summary statements); assay type: cell-based, human
[2] = test system: VGSC of SH-SY5Y cells (Nav1.7, Nav1.2, Nav1.3); test: Patch-clamp recording of VGSC current in differentiated SH-SY5Y cells; assay type: cell-based, human; details: for IC50: read-out: IC50 (VGSC inhibition)
Description: Furthermore, the inventors focused on the relationship between taste receptors, particularly the sweet or umami receptors containing the T1R3 subunit, which are widely expressed in the brain and nervous system, including the hippocampus and cortex. They used human neuroblastoma cells (SH-SY5Y) that functionally express Nav1.2, Nav1.3, and Nav1.7 (as reported in non-patent literature 8), as well as HEK cells stably expressing Nav1.5 (with endogenous expression of T1R1, T1R2, and T1R3). They observed the effects of taste stimuli on sodium channel activation. By reducing the expression of T1R1 and T1R3 genes using silencing vectors, they confirmed that the effects on sodium channel currents induced by taste stimuli act through taste receptor GPCRs.
The SH-SY5Y cell culture medium was prepared by mixing DMEM (Sigma-Aldrich) and F-12 (Sigma-Aldrich) in equal proportions. To induce neuronal-like differentiation, the medium contained 1% FBS (BioWest), 5% 40 mM L-Glutamine (Fuji Film), and 1% MEM non-essential amino acids (Wako Pure Chemical Industries). During differentiation, SH-SY5Y cells were cultured for at least 5 days with the addition of 10 μM/ml retinoic acid (Fuji Film). In this document, “SH-SY5Y cells” refer to the SH-SY5Y cell line differentiated into neuronal-like cells.

Nav1.5 = test: Patch-clamp (voltage clamp) recording of VGSC current in HEK cells stably expressing Nav1.5
Kv1.2 = test: Patch-clamp recording of Kv1.2 potassium current in HEK cells expressing Kv1.2; assay type: cell-based, human
Description: The effects of Aβ peptides or umami substances on sustained potassium currents (VGKC) in cardiac myocytes can be studied using HEK cells expressing VGKC (such as Kv1.2, Kv3.2, Kv3.3) as well as SH-SY5Y cells expressing endogenous T1R GPCRs. For instance, as shown in the implementation example in (FIG. 36B), Aβ peptides were applied to VGKC-expressing human cultured cells, and VGKC currents were recorded using ramp-like or rectangular voltage waveforms via the patch-clamp technique. This allowed measurement of the changes (inhibition) in VGKC currents caused by Aβ peptides. Similar inhibition studies on VGKC can be conducted using umami substance L-glutamate sodium (MSG) (FIG. 36A).
As shown in (FIG. 37), Aβ1-42 peptide, unlike Aβ25-35 targeting T1R3, interacts with T1R1 and inhibits VGSC currents (FIGS. 37D, E).

[3] = test system: Nav1.5 in T1R3-silenced HEK cells; test: VGSC current in HEK Nav1.5 cells with silenced T1R3; assay type: cell-based, human
Description: The miRNAs Oligo (Thermofisher) used for silencing were annealed to form double-stranded DNA, which was then linked to the miR RNAi Expression Vector using T4 DNA ligase to create the knockdown vector. Specifically, the procedure followed the miR RNAi Expression Vector Kit manual (BLOCK-i™ Pol II miR RNAi Expression Vector Kit with EmGFP (Catalog number: K493600)).
Since Aβ25-35 peptide produced similar effects (enhancing VGSC activity, lowering the excitability threshold) as glutamine, it was considered that Aβ25-35 peptide might also act on T1R2/T1R3 receptors like glutamine. Therefore, in this implementation example, we used HEK-Nav1.5 cells with silenced T1R3 and compared the effect of Aβ25-35 peptide on VGSC with that in control HEK-Nav1.5 cells.
To strengthen these findings, we conducted similar experiments using HEK Nav1.5 cells in which T1R3 expression was silenced (FIG. 22). We measured VGSC currents in T1R3-silenced HEK Nav1.5 cells, applying stimuli every 8 seconds.

`Nc1nc2c(ncn2[C@@H]2O[C@H](COP(=O)(O)O)[C@@H](O)[C@H]2O)c(=O)[nH]1` [GMP, guanosine 5′-monophosphate] was tested, and the “Effect on outward potassium current” value [1] was “peak outward potassium current decreases; also recorded: reduced outward potassium currents”, the “Effects on VGSCs” value (VGSC) was “enhances VGSC; also recorded: Enhancement of VGSC” and the “Effect on VGSC” value (VGSC; 1 mM) was 1 mM GMP, much like L-Gln, primarily enhances VGSC without altering. For the same compound, the “Leftward shift in the I-V curve” value [2] was “approximately 10 mV”, the “Effect on VGSC current” value ([2]; 2 mM) was “slight increase in VGSC currents” and the Steady-state inactivation curve ([2]; 2 mM) was “No change; also recorded: No changes were observed”.

For `C/C1=C/C(=O)O[C@@H]2C[C@@H](CC[C@H](C)/C=C\C=C\CC1)O[C@@](O)([C@@H]1CSC(=O)N1)C2` [Latrunculin A], the “Effects on VGSCs” value (VGSC) was “reduces VGSC”, the “Shift of steady-state inactivation (S-S) curve of VGSC” value (from here on “Shift of steady-state inactivation”) (VGSC) was “shifting the S-S curve toward hyperpolarization” and the “Effect on VGSC current” value (VGSC; 12.6 μM) was “shifted the VGSC current toward hyperpolarization and inhibited it”. For the same compound, the “Effect on VGSC current” value (VGSC; 12.6 μM, listed as LatA) was “significantly inhibits VGSC current”.

For `NCCCC[C@H](N)C(=O)O` [lysine], the “Effect on VGSC inactivation” value (VGSC) was “delay VGSC inactivation”.

With `OC[C@H]1O[C@@](CO)(O[C@H]2O[C@H](CO)[C@@H](O)[C@H](O)[C@H]2O)[C@@H](O)[C@@H]1O` [Sucrose] the “Effects on VGSCs” value (VGSC) was “Inhibition of VGSCs”.

For `COc1ccc(OC(C)C(=O)O)cc1` (stereo not drawn) [Lactisole], the “Effects on VGSCs” value (VGSC) was “Inhibition of VGSCs” and the “Effect on VGSC enhanced by Aβ25-35” value (Nav1.5; 1-1.5 mM) was “inhibits the enhancing effect of Aβ25-35 on VGSC; also recorded: recovered to the size of VGSC recorded in the control”.

`N[C@@H](CC(=O)O)C(=O)O` [aspartic acid] was tested, and the “Effect on VGSC inactivation” value (VGSC) was “delay VGSC inactivation”.

For `NC(=O)CC[C@H](N)C(=O)O` [L-Gln, L-glutamine], the “Effect on voltage gated K+ channel (Kv1.2) current” value (Kv1.2) was “Inhibition of Voltage gated”, the “Effects on VGSCs” value (VGSC) was “Enhancement of VGSC; also recorded: Delay in VGSC inactivation” and the “Increase in VGSC current” value (VGSC; 0.5-1 mM, SH-SY5Y (n=8) and HEK-Nav1.5 (n=4)) was 10-20%. The “Effect on VGSC current” value (VGSC; concentrations higher than 1 mM) was 500 uM and 1 mM but not at higher, the “Effect on VGSC current” value (VGSC; concentrations higher than 1 mM, listed as glutamine) was “No further enhancement” and the “Effect on VGSC inward current” value ([2]; 500 μM) was “enhancement of transient downward VGSC current; also recorded: amplification of VGSC inward current”.

With `CC(Oc1ccc(Cl)cc1Cl)C(=O)O` (stereo not drawn) [dichlorprop, 2-(2,4-dichlorophenoxy) propanoic acid] the “Rank among sweet taste inhibitors in inhibiting Na+ channels” value (VGSC; dichlorprop>>clofibrate>lactisole) was “most effective inhibitor of sodium channels at the lowest concentration; also recorded: most potent”, the “Effects on VGSCs” value (VGSC; listed as DichrolProp) was “Inhibition of VGSCs” and the IC50 ([2]; prepulse −80 mV) was 17.3 µM. For the same compound, the IC50 ([2]; prepulse/holding voltage −60 mV) was 9 µM, the “Effect on VGSC current amplitude” value (Nav1.5) was “reduced the amplitude of VGSC current” and the “Vh of steady-state inactivation curve” value (Nav1.5; 500 μM) was “shifted to a more negative potential”. For the same compound, the “Slope of steady-state inactivation curve” value (Nav1.5; Control vs 300 and 500 μM, t-test) was “no significant difference” and the “Effect on S-S curve of VGSC in the presence of Taxol” value (Nav1.5; in the presence of Taxol) was “shifted the S-S curve of VGSC in the hyperpolarizing direction”.

In the case of `N[C@@H](CO)C(=O)O` [L-Serin, L-serine], the “Effects on VGSCs” value (VGSC) is reported as “Enhancement of VGSC” and the “Effect on VGSC current” value (VGSC; 2.5 mM) is reported as “Enhances VGSC currentat 2.5 mM”.

For `CC(=O)O[C@H]1C(=O)[C@@]2(C)[C@H]([C@H](OC(=O)c3ccccc3)[C@]3(O)C[C@H](OC(=O)[C@H](O)[C@@H](NC(=O)c4ccccc4)c4ccccc4)C(C)=C1C3(C)C)[C@]1(OC(C)=O)CO[C@@H]1C[C@@H]2O` [Taxol], the “Effects on VGSCs” value (VGSC) was “Enhances VGSC”, the “Effect on VGSC current” value (Nav1.5; 0.4 μM to […]) was “VGSC enhancement was observed” and the “Effect on VGSC current” value (Nav1.5; 0.4 μM to […], listed as Paclitaxel (Taxol)) was “enhances HEK Nav1.5 cell VGSC”.

`OC[C@H]1OC(O)[C@H](O)[C@@H](O)[C@@H]1O` (stereo partly drawn) [Glucose] was tested, and the “Effects on VGSCs” value (VGSC; <10 mM) was “Enhancement of VGSC” and the “Effects on VGSCs” value (VGSC; >20 mM) was “Inhibition of VGSCs”.

For `COc1cc2c(c(OC)c1OC)-c1ccc(OC)c(=O)cc1[C@@H](NC(C)=O)CC2` [Colchicine], the “Effects on VGSCs” value (VGSC) was “Enhances VGSC” and the VGSC current amplitude (VGSC; 2.25 μM, at −40 mV) was “nearly doubled”.

`NCCCC(=O)O` [GABA, γ-aminobutyric acid] was tested, and the “Effect on VGSC current enhanced by Aβ42/40 (AD-D)” value (Nav1.5; applied after Aβ42/40 (AD-D)) was “no effects similar to β-alanine were observed”.

For `CC(C)(Cc1ccc2ccccc2c1)NC[C@@H](O)COc1cccc(Cl)c1C#N` [NPS-2143], the “Effects on VGSCs” value (VGSC) was “inhibited human VGSC; also recorded: Inhibition of VGSCs”, the “Required concentration for VGSC inhibition” value (VGSC; HEK Nav1.5 and SH-SY5Y) was 5 µM and the “Effect on VGSC current” value (Nav1.5; 5 μM) was “Inhibitory effect; also recorded: slowly inhibited”. For the same compound, the “Effect on leak (baseline) current” value (Nav1.5; when VGSC inhibition nearly complete) was “non-selective leak currents” and the “Effect on VGSC in T1R3-silenced cells” value [3] was “no VGSC inhibitory effect was observed”.

For `Brc1c(Br)c(Br)c2[nH]nnc2c1Br` [TBB, 4,5,6,7-tetrabromobenzotriazole], the “Shift of steady-state inactivation” value (VGSC) was “shifted to the hyperpolarizing direction even at control recordings”, the “Effect on VGSC current amplitude” value (Nav1.5) was “reduced the amplitude of VGSC current” and the “Shift of steady-state inactivation” value (Nav1.5) was “shifted gradually to the left; also recorded: significantly shifts in the hyperpolarizing direction”. For the same compound, the “Suppression of VGSC current” value (Nav1.5; 10 μM, prepulse −80 mV, test pulse −20 mV) was “almost completely suppressed”, the “Suppression of VGSC current” value (Nav1.5; 10 μM, prepulse −100 mV) was “about half suppressed” and the VGSC current unaffected (Nav1.5; 10 μM, prepulse −120 mV) was “more than 80%”. For the same compound, the VGSC current inhibition (Nav1.5; minimum concentration (printed 30 μM), preceding pulse −80 mV) was “nearly complete VGSC current inhibition”, the “Suppression of VGSC current” value (Nav1.5; prepulse −120 mV, at the used TBB concentration) was “about 50%” and the IC50 (Nav1.5; read-out: IC50 from difference in Vh of steady-state inactivation curve (Hill equation)) was 12.9 µM. The IC50 (Nav1.5; read-out: IC50 of inhibition of VGSC current (INa, step −100 mV to −20 mV, Hill plot), prepulse −100 mV) was 15.8 µM.
